Measurements: ChEMBL document CHEMBL1275510, “Ceftibuten resistance and treatment failure of Neisseria gonorrhoeae infection” (Antimicrob Agents Chemother, 2008)
In brackets after ≈: the same amount, converted by molar mass.

How the values were obtained:
Neisseria gonorrhoeae [1] = assay: Antimicrobial activity against penicillin-,ofloxacin- and tetracyclin-resistant Neisseria gonorrhoeae multiantigen sequence type 835 isolate 9 harboring penA gene by Etest; assay type: functional
[2] = Cmax in Neisseria gonorrhoeae infected patient at 400 mg, po; assay type: ADME, organism-based; set-up: dose 400 mg, route oral; conditions: human, in vivo
Neisseria gonorrhoeae [3] = assay: Antimicrobial activity against penicillin-,ofloxacin- and tetracyclin-resistant Neisseria gonorrhoeae multiantigen sequence type 835 isolate 8 harboring penA gene by Etest; assay type: functional
Neisseria gonorrhoeae [4] = assay: Antimicrobial activity against penicillin-,ofloxacin- and tetracyclin-resistant Neisseria gonorrhoeae multiantigen sequence type 835 isolate 5 harboring penA gene by Etest; assay type: functional
Neisseria gonorrhoeae [5] = assay: Antimicrobial activity against penicillin-,ofloxacin- and tetracyclin-resistant Neisseria gonorrhoeae multiantigen sequence type 835 isolate 10 harboring penA gene by Etest; assay type: functional
Neisseria gonorrhoeae [6] = assay: Antimicrobial activity against penicillin-,ofloxacin- and tetracyclin-resistant Neisseria gonorrhoeae multiantigen sequence type 835 isolate 1 harboring penA gene by Etest; assay type: functional
Neisseria gonorrhoeae [7] = assay: Antimicrobial activity against penicillin-,ofloxacin- and tetracyclin-resistant Neisseria gonorrhoeae multiantigen sequence type 2469 isolate 11 harboring penA gene by Etest; assay type: functional
Neisseria gonorrhoeae [8] = assay: Antimicrobial activity against penicillin-,ofloxacin- and tetracyclin-resistant Neisseria gonorrhoeae multiantigen sequence type 835 isolate 4 harboring penA gene by Etest; assay type: functional
Neisseria gonorrhoeae [9] = assay: Antimicrobial activity against penicillin-,ofloxacin- and tetracyclin-resistant Neisseria gonorrhoeae multiantigen sequence type 835 isolate 3 harboring penA gene by Etest; assay type: functional
[10] = Oral bioavailability in Neisseria gonorrhoeae infected patient at 400 mg, po; assay type: ADME, organism-based; conditions: human, in vivo
Neisseria gonorrhoeae [11] = assay: Antimicrobial activity against penicillin-,ofloxacin- and tetracyclin-resistant Neisseria gonorrhoeae multiantigen sequence type 835 isolate 2 harboring penA gene by Etest; assay type: functional
Neisseria gonorrhoeae [12] = assay: Antimicrobial activity against penicillin-,ofloxacin- and tetracyclin-resistant Neisseria gonorrhoeae multiantigen sequence type 835 isolate 6 harboring penA gene by Etest; assay type: functional
Serum = assay: Protein binding in Neisseria gonorrhoeae infected patient serum at 400 mg, po; assay type: ADME, organism-based; conditions: human, in vivo
Neisseria gonorrhoeae [13] = assay: Antimicrobial activity against penicillin-,ofloxacin- and tetracyclin-resistant Neisseria gonorrhoeae multiantigen sequence type 835 isolate 7 harboring penA gene by Etest; assay type: functional
[14] = Half life in Neisseria gonorrhoeae infected patient at 400 mg, po; assay type: ADME, organism-based; conditions: human, in vivo
Neisseria gonorrhoeae [15] = assay: Antimicrobial activity against penicillin-,ofloxacin- and tetracyclin resistant penA-negative Neisseria gonorrhoeae by […]; assay type: functional
Neisseria gonorrhoeae [16] = assay: Antimicrobial activity against penicillin-,ofloxacin- and tetracyclin-resistant Neisseria gonorrhoeae multiantigen sequence type 2469 isolate 11 harboring penA gene by agar dilution method; assay type: functional
Neisseria gonorrhoeae [17] = assay: Antimicrobial activity against penicillin-,ofloxacin- and tetracyclin-resistant Neisseria gonorrhoeae multiantigen sequence type 835 isolate 3 harboring penA gene by disk diffusion method; assay type: functional
Neisseria gonorrhoeae [18] = assay: Antimicrobial activity against penicillin-,ofloxacin- and tetracyclin-resistant Neisseria gonorrhoeae multiantigen sequence type 835 isolate 3 harboring penA gene by agar dilution method; assay type: functional
Neisseria gonorrhoeae [19] = assay: Antimicrobial activity against penicillin-,ofloxacin- and tetracyclin-resistant Neisseria gonorrhoeae multiantigen sequence type 835 isolate 5 harboring penA gene by agar dilution method; assay type: functional
Neisseria gonorrhoeae [20] = assay: Antimicrobial activity against penicillin-,ofloxacin- and tetracyclin-resistant Neisseria gonorrhoeae multiantigen sequence type 835 isolate 1 harboring penA gene by disk diffusion method; assay type: functional
Neisseria gonorrhoeae [21] = assay: Antimicrobial activity against penicillin-,ofloxacin- and tetracyclin-resistant Neisseria gonorrhoeae multiantigen sequence type 835 isolate 4 harboring penA gene by agar dilution method; assay type: functional
Neisseria gonorrhoeae [22] = assay: Antimicrobial activity against penicillin-,ofloxacin- and tetracyclin-resistant Neisseria gonorrhoeae multiantigen sequence type 2469 isolate 11 harboring penA gene by disk diffusion method; assay type: functional
Neisseria gonorrhoeae [23] = assay: Antimicrobial activity against penicillin-,ofloxacin- and tetracyclin-resistant Neisseria gonorrhoeae multiantigen sequence type 835 isolate 4 harboring penA gene by disk diffusion method; assay type: functional
Neisseria gonorrhoeae [24] = assay: Antimicrobial activity against penicillin-,ofloxacin- and tetracyclin-resistant Neisseria gonorrhoeae multiantigen sequence type 835 isolate 7 harboring penA gene by agar dilution method; assay type: functional
Neisseria gonorrhoeae [25] = assay: Antimicrobial activity against penicillin-,ofloxacin- and tetracyclin-resistant Neisseria gonorrhoeae multiantigen sequence type 835 isolate 2 harboring penA gene by agar dilution method; assay type: functional
Neisseria gonorrhoeae [26] = assay: Antimicrobial activity against penicillin-,ofloxacin- and tetracyclin-resistant Neisseria gonorrhoeae multiantigen sequence type 835 isolate 6 harboring penA gene by disk diffusion method; assay type: functional
Neisseria gonorrhoeae [27] = assay: Antimicrobial activity against penicillin-,ofloxacin- and tetracyclin-resistant Neisseria gonorrhoeae multiantigen sequence type 835 isolate 8 harboring penA gene by agar dilution method; assay type: functional
Neisseria gonorrhoeae [28] = assay: Antimicrobial activity against penicillin-,ofloxacin- and tetracyclin-resistant Neisseria gonorrhoeae multiantigen sequence type 835 isolate 9 harboring penA gene by disk diffusion method; assay type: functional
Neisseria gonorrhoeae [29] = assay: Antimicrobial activity against penicillin-,ofloxacin- and tetracyclin-resistant Neisseria gonorrhoeae multiantigen sequence type 835 isolate 2 harboring penA gene by disk diffusion method; assay type: functional
Neisseria gonorrhoeae [30] = assay: Antimicrobial activity against penicillin-,ofloxacin- and tetracyclin-resistant Neisseria gonorrhoeae multiantigen sequence type 835 isolate 1 harboring penA gene by agar dilution method; assay type: functional
Neisseria gonorrhoeae [31] = assay: Antimicrobial activity against penicillin-,ofloxacin- and tetracyclin-resistant Neisseria gonorrhoeae multiantigen sequence type 835 isolate 5 harboring penA gene by disk diffusion method; assay type: functional
Neisseria gonorrhoeae [32] = assay: Antimicrobial activity against penicillin-,ofloxacin- and tetracyclin resistant Neisseria gonorrhoeae by […]; assay type: functional
Neisseria gonorrhoeae [33] = assay: Antimicrobial activity against penicillin-,ofloxacin- and tetracyclin-resistant Neisseria gonorrhoeae multiantigen sequence type 835 isolate 9 harboring penA gene by agar dilution method; assay type: functional
Neisseria gonorrhoeae [34] = assay: Antimicrobial activity against penicillin-,ofloxacin- and tetracyclin-resistant Neisseria gonorrhoeae multiantigen sequence type 835 isolate 10 harboring penA gene by agar dilution method; assay type: functional
Neisseria gonorrhoeae [35] = assay: Antimicrobial activity against penicillin-,ofloxacin- and tetracyclin-resistant Neisseria gonorrhoeae multiantigen sequence type 835 isolate 10 harboring penA gene by disk diffusion method; assay type: functional
Neisseria gonorrhoeae [36] = assay: Antimicrobial activity against penicillin-,ofloxacin- and tetracyclin-resistant Neisseria gonorrhoeae multiantigen sequence type 835 isolate 7 harboring penA gene by disk diffusion method; assay type: functional
Neisseria gonorrhoeae [37] = assay: Antimicrobial activity against penicillin-,ofloxacin- and tetracyclin-resistant Neisseria gonorrhoeae multiantigen sequence type 835 isolate 8 harboring penA gene by disk diffusion method; assay type: functional
Neisseria gonorrhoeae [38] = assay: Antimicrobial activity against penicillin-,ofloxacin- and tetracyclin-resistant Neisseria gonorrhoeae multiantigen sequence type 835 isolate 6 harboring penA gene by agar dilution method; assay type: functional

SMILES: C=CC1=C(C(=O)O)N2C(=O)[C@@H](NC(=O)/C(=N\OCC(=O)O)c3csc(N)n3)[C@H]2SC1 [CEFIXIME]
- MIC (Neisseria gonorrhoeae [1]): 0.125 mg/L (≈ 0.276 µM)
- Cmax [2]: 3 µg/mL
- MIC (Neisseria gonorrhoeae [3]): 0.25 mg/L (≈ 0.551 µM)
- MIC (Neisseria gonorrhoeae [4]): 0.25 mg/L (≈ 0.551 µM)
- MIC (Neisseria gonorrhoeae [5]): 0.25 mg/L (≈ 0.551 µM)
- MIC (Neisseria gonorrhoeae [6]): 0.25 mg/L (≈ 0.551 µM)
- MIC (Neisseria gonorrhoeae [7]): 0.125 mg/L (≈ 0.276 µM)
- MIC (Neisseria gonorrhoeae [8]): 0.25 mg/L (≈ 0.551 µM)
- MIC (Neisseria gonorrhoeae [9]): 0.25 mg/L (≈ 0.551 µM)
- bioavailability [10]: 50%
- MIC (Neisseria gonorrhoeae [11]): 0.25 mg/L (≈ 0.551 µM)
- MIC (Neisseria gonorrhoeae [12]): 0.25 mg/L (≈ 0.551 µM)
- Activity (Serum): 65%
- MIC (Neisseria gonorrhoeae [13]): 0.25 mg/L (≈ 0.551 µM)
- half-life [14]: 3.1 h

SMILES: Nc1nc(/C(=C/CC(=O)O)C(=O)N[C@@H]2C(=O)N3C(C(=O)O)=CCS[C@H]23)cs1 [CEFTIBUTEN]
- MIC (Neisseria gonorrhoeae [15]): ≤ 1 mg/L
- Cmax [2]: 15 µg/mL
- MIC (Neisseria gonorrhoeae [16]): 8 mg/L (≈ 19.5 µM)
- diameter of the inhibition zone (DIZ) (Neisseria gonorrhoeae [17]): 25 mm
- MIC (Neisseria gonorrhoeae [18]): 8 mg/L (≈ 19.5 µM)
- MIC (Neisseria gonorrhoeae [19]): 8 mg/L (≈ 19.5 µM)
- diameter of the inhibition zone (DIZ) (Neisseria gonorrhoeae [20]): 26 mm
- MIC (Neisseria gonorrhoeae [21]): 8 mg/L (≈ 19.5 µM)
- diameter of the inhibition zone (DIZ) (Neisseria gonorrhoeae [22]): 23 mm
- diameter of the inhibition zone (DIZ) (Neisseria gonorrhoeae [23]): 22 mm
- MIC (Neisseria gonorrhoeae [24]): 8 mg/L (≈ 19.5 µM)
- bioavailability [10]: 80%
- MIC (Neisseria gonorrhoeae [25]): 8 mg/L (≈ 19.5 µM)
- diameter of the inhibition zone (DIZ) (Neisseria gonorrhoeae [26]): 22 mm
- MIC (Neisseria gonorrhoeae [27]): 8 mg/L (≈ 19.5 µM)
- diameter of the inhibition zone (DIZ) (Neisseria gonorrhoeae [28]): 27 mm
- diameter of the inhibition zone (DIZ) (Neisseria gonorrhoeae [29]): 24 mm
- MIC (Neisseria gonorrhoeae [30]): 8 mg/L (≈ 19.5 µM)
- diameter of the inhibition zone (DIZ) (Neisseria gonorrhoeae [31]): 20 mm
- diameter of the inhibition zone (DIZ) (Neisseria gonorrhoeae [32]): >=30 mm
- MIC (Neisseria gonorrhoeae [33]): 8 mg/L (≈ 19.5 µM)
- MIC (Neisseria gonorrhoeae [34]): 8 mg/L (≈ 19.5 µM)
- diameter of the inhibition zone (DIZ) (Neisseria gonorrhoeae [35]): 19 mm
- Activity (Serum): 65%
- diameter of the inhibition zone (DIZ) (Neisseria gonorrhoeae [36]): 25 mm
- diameter of the inhibition zone (DIZ) (Neisseria gonorrhoeae [37]): 21 mm
- half-life [14]: 2.4 h
- MIC (Neisseria gonorrhoeae [38]): 8 mg/L (≈ 19.5 µM)

SMILES: CO/N=C(\C(=O)N[C@@H]1C(=O)N2C(C(=O)O)=C(CSc3nc(=O)c(O)nn3C)CS[C@H]12)c1csc(N)n1 [CEFTRIAXONE]
- MIC (Neisseria gonorrhoeae [1]): 0.064 mg/L (≈ 0.115 µM)
- MIC (Neisseria gonorrhoeae [3]): 0.125 mg/L (≈ 0.225 µM)
- MIC (Neisseria gonorrhoeae [4]): 0.064 mg/L (≈ 0.115 µM)
- MIC (Neisseria gonorrhoeae [5]): 0.064 mg/L (≈ 0.115 µM)
- MIC (Neisseria gonorrhoeae [6]): 0.064 mg/L (≈ 0.115 µM)
- MIC (Neisseria gonorrhoeae [7]): 0.064 mg/L (≈ 0.115 µM)
- MIC (Neisseria gonorrhoeae [8]): 0.064 mg/L (≈ 0.115 µM)
- MIC (Neisseria gonorrhoeae [9]): 0.064 mg/L (≈ 0.115 µM)
- MIC (Neisseria gonorrhoeae [11]): 0.064 mg/L (≈ 0.115 µM)
- MIC (Neisseria gonorrhoeae [12]): 0.064 mg/L (≈ 0.115 µM)
- MIC (Neisseria gonorrhoeae [13]): 0.064 mg/L (≈ 0.115 µM)

SMILES: CN[C@@H]1[C@H](O)[C@H](NC)[C@H]2O[C@@]3(O)C(=O)C[C@@H](C)O[C@H]3O[C@@H]2[C@H]1O [SPECTINOMYCIN]
- MIC (Neisseria gonorrhoeae [1]): 8 mg/L (≈ 24.1 µM)
- MIC (Neisseria gonorrhoeae [3]): 8 mg/L (≈ 24.1 µM)
- MIC (Neisseria gonorrhoeae [4]): 8 mg/L (≈ 24.1 µM)
- MIC (Neisseria gonorrhoeae [5]): 8 mg/L (≈ 24.1 µM)
- MIC (Neisseria gonorrhoeae [6]): 8 mg/L (≈ 24.1 µM)
- MIC (Neisseria gonorrhoeae [7]): 8 mg/L (≈ 24.1 µM)
- MIC (Neisseria gonorrhoeae [8]): 8 mg/L (≈ 24.1 µM)
- MIC (Neisseria gonorrhoeae [9]): 16 mg/L (≈ 48.1 µM)
- MIC (Neisseria gonorrhoeae [11]): 16 mg/L (≈ 48.1 µM)
- MIC (Neisseria gonorrhoeae [12]): 8 mg/L (≈ 24.1 µM)
- MIC (Neisseria gonorrhoeae [13]): 8 mg/L (≈ 24.1 µM)
